Laboratory results as given in patent US10030016B2 (Sunesis Pharmaceuticals, Inc., priority 2009, dated 2018).
Where a name gives a salt, the structure may show the parent alone. Read-outs that look alike come from different tables or passages of the source.

How the values were obtained:
PDK1 = PDK1 (Homo sapiens (Human), UniProt O15530); experiment: PDK1 kinase assay (coupled PDK1/AKT/FAM-crosstide assay, IMAP fluorescence polarization); assay type: biochemical
How it was run: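 Inhibition is derived by 4-parameter fitting of ΔmP from an IMAP fluorescence polarization read of FAM-crosstide (100 nM) phosphorylation. The cascade ran 30 min at 25 °C with 40 μM ATP, using insect-cell GST-PDK1 51-359 (0.75 nM) driving 10 nM unphosphorylated AKT2 140-467-PIFtide fusion.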

[1] = test system: phospho-akt (Thr308) in PC-3 cells; experiment: Inhibition of phospho-akt (Thr308) in PC-3 cells, MSD phospho-akt 308 ELISA kit; assay type: cell-based; conditions: Homo sapiens, 2 hours, no serum, read-out: EC50
How it was run: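 PC-3 cells (15,000/well, overnight in 10% FBS medium) treated 2 h with three-fold diluted compounds in serum-free medium; DMSO high and 5 μM wortmannin low controls. Lysates captured on BSA-blocked MSD plates overnight at 4 °C, then 1 h antibody detection at RT; phospho-Akt Thr308 read by MSD electrochemiluminescence.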

[2] = inhibition of P308 Akt in PC-3 cells using MSD
[3] = inhibition of phospo-PDK1 in vitro
[4] = inhibition of P308 Akt in PC-3 cells, MSD

Sequence of PDK1 (O15530 51-359): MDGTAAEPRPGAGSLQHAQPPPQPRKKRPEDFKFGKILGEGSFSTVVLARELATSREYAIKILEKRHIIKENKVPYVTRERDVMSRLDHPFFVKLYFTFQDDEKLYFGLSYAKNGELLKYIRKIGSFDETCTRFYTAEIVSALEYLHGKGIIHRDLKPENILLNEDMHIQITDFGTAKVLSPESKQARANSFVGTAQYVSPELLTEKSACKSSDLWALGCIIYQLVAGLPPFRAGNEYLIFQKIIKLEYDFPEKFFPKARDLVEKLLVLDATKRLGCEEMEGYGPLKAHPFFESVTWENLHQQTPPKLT

SMILES	IC50 (PDK1; inhibition of PDK1 in vitro) [nM]	EC50 [1, 2] [nM]	IC50 (PDK1; [3]) [nM]	EC50 [1, 4] [nM]	EC50 ([1]; PC-3, 2 h, inhibition of P308 Akt in PC-3 cells, MSD) [nM]
Nc1ncnc2ccc(-c3ccc(CNc4ncc(NC(=O)C(F)(F)F)cc4C(=O)NCc4ccc(F)c(F)c4)s3)cc12 [Example 8.5.6, 2-({[5-(4-aminoquinazolin-6-yl)thiophen-2-yl]methyl}amino)-N-(3,4-difluorobenzyl)-5-[(trifluoroacetyl)amino] pyridine-3-carboxamide]	–	–	100 to 1000	1000 to 10000	–
Nc1ncnc2ccc(-c3ccc(CNc4nccnc4C(=O)NCc4cccc(F)c4F)s3)cc12 [Example 3.74, 3-({[5-(4-aminoquinazolin-6-yl)thiophen-2-yl]methyl}amino)-N-(2,3-difluorobenzyl)pyrazine-2-carboxamide (TFA salt)]	–	–	100 to 1000	> 10000	–
O=C(NCc1ccc(F)c(F)c1)c1cc(C(F)(F)F)cnc1NCc1ccc(-c2cnc(NCCO)cn2)cc1 [Example 229, N-(3,4-difluorobenzyl)-2-(4-(5-(2-hydroxyethylamino)pyrazin-2-yl)benzylamino)-5-(trifluoromethyl)nicotinamide]	100 to 1000	1000 to 10000	–	–	–
Nc1cnc(-c2ccc(CNc3ncc(C(F)(F)F)cc3C(=O)NCc3ccc(F)c(F)c3)cn2)cn1 [Example 326]	100 to 1000	> 10000	–	–	–
C#CCNC(=O)c1cc(C(F)(F)F)cnc1NCc1ccc(-c2cnc3[nH]nc(N)c3c2)cc1 [Example 271, 2-(4-(3-amino-1H-pyrazolo [3,4-b]pyridin-5-yl)benzylamino)-N-(prop-2-ynyl)-5-(trifluoromethyl) nicotinamide]	100 to 1000	1000 to 10000	–	–	–
C[C@H](NC(=O)c1nc(C#N)cnc1NCc1ccc(-c2cnc(N)c(O[C@H]3CCC[C@@H]3N)n2)cc1)c1ccc(F)c(F)c1 [Example 169, 3-{4-[5-Amino-6-((1S,2S)-2-amino-cyclopentyloxy)-pyrazin-2-yl]-benzylamino}-6-cyano-pyrazine-2-carboxylic acid [(S)-1-(3,4-difluoro-phenyl)-ethyl]-amide]	< 100	< 1000	–	–	–
Cn1nc(-c2ccc(CNc3ncc(C(F)(F)F)cc3C(=O)NCc3ccc(F)c(F)c3)cc2)c2c(N)ncnc21 [Example 332, 2-(4-(4-amino-1-methyl-1H-pyrazolo[3,4-d]pyrimidin-3-yl)-benzylamino)-N-(3,4-difluorobenzyl)-5-(trifluoromethyl)nicotinamide]	< 100	1000 to 10000	–	–	–
NCCCc1nc(-c2ccc(CNc3ncc(C(F)(F)F)cc3C(=O)NCc3ccc(F)c(F)c3)cc2)cnc1N [Example 72, 2-{4-[5-Amino-6-(3-amino-propyl)-pyrazin-2-yl]-benzyl-amino}-N-(3,4-difluoro-benzyl)-5-trifluoromethyl-nicotinamide]	< 100	1000 to 10000	–	–	–
COCC#Cc1cnc(NCc2ccc(-c3ccc4ncnc(N)c4c3)s2)c(C(=O)N[C@@H](C)c2ccc(F)c(F)c2)n1 [Ex. 10.8, 3-({[5-(4-aminoquinazolin-6-yl)thiophen-2-yl]methyl}amino)-N-[(1S)-1-(3,4-difluorophenyl)ethyl]-6-(3-methoxyprop-1-yn-1-yl)pyrazine-2-carboxamide]	–	–	100 to 1000	< 1000	–
CCNC(=O)c1cccnc1NCc1cccc(-c2c[nH]c3ncccc23)c1 [Example 1.11, N-ethyl-2-{[3-(1H-pyrrolo[2,3-b]pyridin-3-yl)benzyl]amino}pyridine-3-carboxamide]	–	–	> 5000	1000 to 10000	–
C[C@H](COc1ccc2c(c1)NC(=O)/C2=C\c1cnc[nH]1)Nc1ncccc1C(=O)NCc1ccc(F)c(F)c1 [Example 24, (R,Z)-2-(1-(3-((1H-imidazol-5-yl)methylene)-2-oxoindolin-6-yloxy)propan-2-ylamino)-N-(3,4-difluorobenzyl)nicotinamide]	–	–	< 100	1000 to 10000	–
CCC(C)NS(=O)(=O)c1cnc(NCc2ccc(-c3ccc4ncnc(N)c4c3)s2)c(C(=O)NCc2ccc(F)c(F)c2)c1 (stereo not drawn) [Example 8.7.10, 2-({[5-(4-aminoquinazolin-6-yl)thiophen-2-yl]methyl}amino)-5-(butan-2-ylsulfamoyl)-N-(3,4-difluorobenzyl)pyridine-3-carboxamide]	–	–	100 to 1000	1000 to 10000	–
C[C@@H](c1ccc(F)c(F)c1)n1cnc2ccnc(NCc3ccc(-c4cc5c(N)ncnc5cn4)s3)c2c1=O [Example 7.11, 5-({[5-(4-aminopyrido [3,4-d]pyrimidin-6-yl)thiophen-2-yl]methyl}amino)-3-[(1S)-1-(3,4-difluorophenyl)ethyl] pyrido[4,3-d]pyrimidin-4(3H)-one]	–	–	100 to 1000	–	< 1000
COc1cnc(NCc2ccc(-c3ccc4ncnc(N)c4c3)s2)c(C(=O)NCc2ccc(F)c(F)c2)c1 [Example 8.1.2, 2-({[5-(4-aminoquinazolin-6-yl)thiophen-2-yl]methyl}amino)-N-(3,4-difluorobenzyl)-5-methoxypyridine-3-carboxamide]	–	–	< 100	< 1000	–
CCc1nc(C)c(/C=C2\C(=O)Nc3cc(/C=C/CNc4ncccc4C(=O)NCc4ccc(F)c(F)c4)ccc32)[nH]1 [Example 15.11, N-(3,4-Difluoro-benzyl)-2-((E)-3-{3-[1-(2-ethyl-5-methyl-3H-imidazol-4-yl)-meth-(Z)-ylidene]-2-oxo-2,3-dihydro-1H-indol-6-yl}-allylamino)-nicotinamide]	–	–	< 100	< 1000	–
CN(C)S(=O)(=O)c1cnc(NCc2ccc(-c3ccc4ncnc(N)c4c3)s2)c(C(=O)NCc2ccc(F)c(F)c2)c1 [Example 8.7.5]	–	–	< 100	< 1000	–
C[C@H](NC(=O)c1cccnc1NCc1ccc(-c2ccc3ncnc(N4CCC4)c3c2)s1)c1ccc(F)c(F)c1 [Example 387, 2-{[5-(4-Azetidin-1-yl-quinazolin-6-yl)-thiophen-2-ylmethyl]-amino}-N-[(S)-1-(3,4-difluoro-phenyl)-ethyl]-nicotinamide]	< 100	1000 to 10000	–	–	–
CNc1ncc2cc(C#CCNc3ncc(C(F)(F)F)cc3C(=O)NCc3ccc(F)c(F)c3)ccc2n1 [Example 256, N-(3,4-difluorobenzyl)-2-(2-(2-(methylamino)quinazolin-6-yl)prop-2-ynylamino)-5-(trifluoromethyl)nicotinamide]	< 100	1000 to 10000	–	–	–

Now from value to compound:

IC50 (PDK1; inhibition of PDK1 in vitro) [nM]	EC50 [1, 2] [nM]	IC50 (PDK1; [3]) [nM]	EC50 [1, 4] [nM]	EC50 ([1]; PC-3, 2 h, inhibition of P308 Akt in PC-3 cells, MSD) [nM]	SMILES
< 100	< 1000	–	–	–	N#Cc1cnc(NCc2ccc(-c3cnc4[nH]nc(N)c4c3)cc2)c(C(=O)NCc2cncc(F)c2)c1 [Example 311, 2-(4-(3-amino-1H-pyrazolo [3,4-b]pyridin-5-yl)benzylamino)-5-cyano-N-((5-fluoropyridin-3-yl)-5-methyl)nicotinamide]
< 100	< 1000	–	–	–	C[C@H](NC(=O)c1cc(C#N)cnc1NCc1ccc(-c2cnc(N)c(CCCN(C)C)n2)cc1)c1ccc(F)cc1 [Example 158, (S)-2-(4-(5-amino-6-(3-(dimethylamino)propyl)pyrazin-2-yl)benzylamino)-5-cyano-N-(1-(4-fluorophenyl)ethyl) nicotinamide]
< 100	< 1000	–	–	–	C[C@H](NC(=O)c1cc(C#N)cnc1NCc1ccc(-c2cnc(N)c(O[C@H]3CCNC3)n2)cc1)c1ccc(F)cc1 [Example 162, 2-{4-[5-Amino-6-((S)-pyrrolidin-3-yloxy)-pyrazin-2-yl]-benzylamino}-5-cyano-N-[(S)-1-(4-fluoro-phenyl)-ethyl]-nicotinamide]
–	–	< 100	< 1000	–	C[C@H](NC(=O)c1nc(C#N)cnc1NCc1ccc(-c2cnc3[nH]nc(NC(=O)c4ccccc4)c3c2)cc1)c1ccc(F)c(F)c1 [Example 37, (S)-3-(4-(3-benzamido-1H-pyrazolo[3,4-b]pyridin-5-yl)benzylamino)-6-cyano-N-(1-(3,4-difluorophenyl)ethyl)pyrazine-2-carboxamide]
< 100	< 1000	–	–	–	CNC(=O)c1nc(-c2ccc(CNc3ncc(C#N)cc3C(=O)N[C@@H](C)c3ccc(F)cc3)cc2)cnc1N [Example 216, (S)-3-amino-6-(4-((5-cyano-3-(1-(4-fluorophenyl)ethylcarbamoyl)pyridin-2-ylamino)methyl)phenyl)-N-methylpyrazine-2-carboxamide]
< 100	< 1000	–	–	–	C[C@H](NC(=O)c1cc(C#N)cnc1NCc1ccc(-c2cnc(N)c(CCCCO)n2)cc1)c1ccc(F)cc1 [Example 90, 2-{4-[5-Amino-6-(4-hydroxy-butyl)-pyrazin-2-yl]-benzyl-amino}-5-cyano-N-[(S)-1-(4-fluoro-phenyl)-ethyl]-nicotinamide]
> 5000	> 10000	–	–	–	COC(=O)c1ccc(-c2ccc(CNc3ncc(C#N)cc3C(=O)N[C@@H](C)c3ccc(F)cc3)cc2)cn1 [Example 112, (S)-methyl 5-(4-((5-cyano-3-(1-(4-fluorophenyl)ethyl-carbamoyl)pyridin-2-ylamino)methyl)phenyl)picolinate]
< 100	1000 to 10000	–	–	–	N#Cc1cnc(NCc2ccc(-c3cnc(N)cn3)cc2)c(C(=O)NCc2ccc(F)cc2)c1 [Example 378, 2-(4-(5-aminopyrazin-2-yl)benzylamino)-5-cyano-N-(4-fluorobenzyl) nicotinamide]
< 100	1000 to 10000	–	–	–	C[C@H](NC(=O)c1cc(C#N)cnc1NCc1ccc(-c2cnc(N)c(N3CCC[C@@H](N)C3)n2)cc1)c1ccc(F)cc1 [Example 188, 2-{4-[5-Amino-6-((R)-3-amino-piperidin-1-yl)-pyrazin-2-yl]-benzylamino}-5-cyano-N-[(S)-1-(4-fluoro-phenyl)-ethyl]-nicotinamide]
